Measurements from patent US20230141569A1, “FLUORESCENT DYE, AND PREPARATION METHOD AND USES THEREOF” (FLUORESCENCE DIAGNOSIS (SHANGHAI) BIOTECH COMPANY LTD., priority 2020, published 2023).

test: Viscosity response: fluorescence in glycerin vs methanol (Test Example 1); assay type: physicochemical; conditions: final concentration 1×10^−5 M, excited at maximum excitation wavelength of each dye

Point of comparison: `CN1C(=O)/C(=C/c2ccc(N(C)CCN)cc2)N=C1/C=C/c1cccc(F)c1` [IV-31], “Glycerin/Methanol Fluorescence Intensity Ratio” value 902. Against it:
- O=C1NC(/C=C/c2ccc(Br)cc2)=NC/1=C\c1cc(Cl)c(O)c(Cl)c1 [IV-16] — lower, 689
- C=CCOCCN(C)c1ccc(/C=C2N=C(/C=C/c3ccccc3C#N)N(C)C\2=S)cc1 [IV-23] — higher, 915
- CCCN1C(=S)/C(=C/c2ccc(N(C)C)nc2)N=C1/C=C/c1ccccc1F [IV-24] — higher, 934
- CCCCCCN(CCCCCC)c1cnc(/C=C2N=C(/C=C/c3cccc(Cl)c3)N(C)C\2=O)cn1 [IV-25] — higher, 918
- CN1C(=O)/C(=C/c2cnc(N(C)CCC#N)nc2)N=C1/C=C/c1ccccc1I [IV-26] — higher, 937
- CCCN1C(=O)/C(=C/c2cc3c4c(c2)CCCN4CCC3)N=C1/C=C/c1ccc(C#N)cc1 [IV-27] — lower, 890
- CN1C(=O)/C(=C/c2ccc(N(C)CCS(=O)(=O)O)cc2)N=C1/C=C/c1ccc(C#N)cc1 [IV-28] — higher, 942
- COCCOCCOCCOCC(=O)OCCN(C)c1ccc(/C=C2N=C(/C=C/c3ccc(C#N)cc3)N(C)C\2=O)cc1 [IV-29] — lower, 829
- COC(=O)CNCCN(C)c1ccc(/C=C2N=C(/C=C/c3ccc(Br)cc3)N(C)C\2=O)cc1 [IV-30] — higher, 921
- CN(C)CCN(C)c1ccc(/C=C2N=C(/C=C/c3cccc(F)c3)N(C)C\2=O)cc1 [IV-32] — higher, 999
- CC1=CC(C)(C)N(C)c2ccc(/C=C3N=C(/C=C/c4ccc(C#N)cc4)N(C)C\3=O)cc21 [IV-33] — lower, 729
- CN1C(=O)/C(=C/c2ccc3c(c2)OCCN3C)N=C1/C=C/c1ccc(F)cc1 [IV-34] — lower, 810
- CN1C(=O)/C(=C/c2ccc(N)cc2)N=C1/C=C/c1ccc(C#N)cc1 [IV-35] — lower, 776
- CN1C(=O)/C(=C/c2ccc3cc(N(C)CCO)ccc3c2)N=C1/C=C/c1cccc(O)c1 [IV-36] — lower, 792
- C#CCOCCN(C)c1ccc(/C=C2N=C(/C=C/c3ccc(F)cc3)N(C)C\2=O)cc1 [IV-37] — lower, 801
- CN1C(=O)/C(=C/c2cnc3cc(N(C)C)ccc3c2)N=C1/C=C/c1cccc(C#N)c1 [IV-38] — lower, 529

same assay, conditions: final concentration 1×10^−5 M, glycerin and methanol

Point of comparison: `CN1C(=O)/C(=C/c2ccc(N(C)CCN)cc2)N=C1/C=C/c1cccc(F)c1` [IV-31], “Maximum Excitation Wavelength (nm)” value 581 nm. Against it:
- O=C1NC(/C=C/c2ccc(Br)cc2)=NC/1=C\c1cc(Cl)c(O)c(Cl)c1 [IV-16] — higher, 595 nm
- C=CCOCCN(C)c1ccc(/C=C2N=C(/C=C/c3ccccc3C#N)N(C)C\2=S)cc1 [IV-23] — higher, 617 nm
- CCCN1C(=S)/C(=C/c2ccc(N(C)C)nc2)N=C1/C=C/c1ccccc1F [IV-24] — lower, 551 nm
- CCCCCCN(CCCCCC)c1cnc(/C=C2N=C(/C=C/c3cccc(Cl)c3)N(C)C\2=O)cn1 [IV-25] — higher, 591 nm
- CN1C(=O)/C(=C/c2cnc(N(C)CCC#N)nc2)N=C1/C=C/c1ccccc1I [IV-26] — lower, 555 nm
- CCCN1C(=O)/C(=C/c2cc3c4c(c2)CCCN4CCC3)N=C1/C=C/c1ccc(C#N)cc1 [IV-27] — higher, 600 nm
- CN1C(=O)/C(=C/c2ccc(N(C)CCS(=O)(=O)O)cc2)N=C1/C=C/c1ccc(C#N)cc1 [IV-28] — higher, 620 nm
- COCCOCCOCCOCC(=O)OCCN(C)c1ccc(/C=C2N=C(/C=C/c3ccc(C#N)cc3)N(C)C\2=O)cc1 [IV-29] — higher, 618 nm
- COC(=O)CNCCN(C)c1ccc(/C=C2N=C(/C=C/c3ccc(Br)cc3)N(C)C\2=O)cc1 [IV-30] — higher, 582 nm
- CN(C)CCN(C)c1ccc(/C=C2N=C(/C=C/c3cccc(F)c3)N(C)C\2=O)cc1 [IV-32] — lower, 580 nm
- CC1=CC(C)(C)N(C)c2ccc(/C=C3N=C(/C=C/c4ccc(C#N)cc4)N(C)C\3=O)cc21 [IV-33] — higher, 605 nm
- CN1C(=O)/C(=C/c2ccc3c(c2)OCCN3C)N=C1/C=C/c1ccc(F)cc1 [IV-34] — higher, 603 nm
- CN1C(=O)/C(=C/c2ccc(N)cc2)N=C1/C=C/c1ccc(C#N)cc1 [IV-35] — lower, 561 nm
- CN1C(=O)/C(=C/c2ccc3cc(N(C)CCO)ccc3c2)N=C1/C=C/c1cccc(O)c1 [IV-36] — higher, 690 nm
- C#CCOCCN(C)c1ccc(/C=C2N=C(/C=C/c3ccc(F)cc3)N(C)C\2=O)cc1 [IV-37] — lower, 580 nm
- CN1C(=O)/C(=C/c2cnc3cc(N(C)C)ccc3c2)N=C1/C=C/c1cccc(C#N)c1 [IV-38] — higher, 705 nm
